The values that follow come from patent US7714047B2, “Process for producing aqueous fluoropolymer dispension and aqueous fluoropolymer dispersion” (Daikin Industries, Ltd., priority 2003, dated 2010).

The nature of this series: Octanol/water partition coefficient (log P) by HPLC elution time against a working curve of standard substances. In kind it is physicochemical. Conditions: Tosoh ODS-120T column, acetonitrile/0.6% (by mass) aqueous HClO4 = 1/1, 40° C., UV 210 nm, standards heptanoic, octanoic, nonanoic and decanoic acid. As for the experimental part:
The octanol/water partition coefficient is the coefficient of partition between 1-octanol and water and is expressed in terms of log P [wherein P represents the ratio between the fluorine-containing surfactant (A) concentration in octanol/fluorine-containing surfactant (A) concentration in water as found upon phase separation of a fluorine-containing surfactant (A)-containing octanol/water mixture (1:1)]. The octanol/water partition coefficient is determined by the measurement method according to OECD Guideline 107. In measuring the octanol/water partition coefficient, such methods as the flask shaking method and reversed-phase high performance liquid chromatography can generally be employed.
(5) Octanol/Water Partition Coefficient
Standard substances (heptanoic acid, octanoic acid, nonanoic acid and decanoic acid) each having a known octanol/water partition coefficient were subjected to HPLC under the following conditions: column: Tosoh ODS-120T column (ø4.6 mm×250 mm), eluent: acetonitrile/0.6% (by mass) aqueous solution of HClO4=1/1 (vol/vol %), flow rate: 1.0 ml/minute, sample size: 300 μL, column temperature: 40° C., detection light: UV 210 nm. A working curve showing the relation between the elution time and the known octanol/water partition coefficient was then constructed. The coefficient in question was determined from the elution time in HPLC for the sample solution based on that working curve.
As to `N.O=C(O)C(F)(F)C(F)(F)C(F)(F)C(F)(F)C(F)(F)C(F)F` [Fluorine-containing surfactant 1, H(CF2CF2)3COONH4], the “logP: octanol/water partition coefficient” value is 2.4.
For the molecule `N.O=C(O)C(F)(OC(F)(F)C(F)(F)C(F)(F)F)C(F)(F)F` (centres unmarked) [Fluorine-containing surfactant 2, C3F7OCF(CF3)COONH4], the “logP: octanol/water partition coefficient” value is listed as 2.5.
Then `N.O=C(O)C(F)(OC(F)(F)C(F)(OC(F)(F)F)C(F)(F)F)C(F)(F)F` (centres unmarked) [Fluorine-containing surfactant 3, CF3O(CF(CF3)CF2O)CF(CF3)COONH4], with 3.4; and `N.O=C(O)C(F)(F)C(F)(F)C(F)(F)C(F)(F)C(F)(F)C(F)(F)C(F)(F)F` [Fluorine-containing surfactant 5, CF3(CF2CF2)3COONH4], with 3.5.
Take “CF3CF2(CF2CF2)2COONH4 [Fluorine-containing surfactant 4]”: the “logP: octanol/water partition coefficient” value is 3.0.
